We go through 3 molecules from patent US9782393B2, “Pharmaceutical compositions and methods for treating cancer and biomarkers for drug screening” (NATIONAL DEFENSE MEDICAL CENTER, priority 2013, dated 2017).

In data set [1] the test system is ACHN cells. The experiment in a line: SRB assay, growth inhibition of ACHN cells. As to conditions: 5 μM sorafenib, 10 μM GW5074, single or combined, 24 hours. The format is cell-based, Human. On the procedure:
Human renal carcinoma (ACHN) cells were cultured in Eagle MEM (Minimum Essential Medium) with 10% FBS (Fetal Bovine Serum) and 1% penicillin/streptomycin. Sulforhodamine B (SRB) is a negative […] with a sulfonic acid group and binds to basic amino acids of intracellular proteins in weak acidic conditions. The SRB […] was extracted from cells using weak alkaline solution and then subjected to absorbance measurement. The amount of intracellular proteins, which is an indicator for cell survival, can be calculated from the amount of SRB. ACHN or A498 cells were treated singularly with 2.5 μM sorafenib, 5 μM sorafenib, 10 μM sorafenib, GW5074, L779450 or PLX4720 for 24, 48 and 72 hours, followed by SRB assay to assess cell survival. Alternatively, ACHN cells were pre-treated with 10 μM GW5074, 10 μM L779450 or 10 μM PLX4720 for 30 minutes prior to 5 μM sorafenib treatment for additional 24, 48 and 72 hours, followed by SRB assay to assess growth inhibition.
For orientation: In SRB staining, fixed cells bind dye roughly in proportion to their protein.

Data set [2] deals with ACHN cells. The experiment in a line: ACHN xenograft in immunodeficient mice, tumor volume. As to conditions: printed as 5 μM sorafenib, 10 μM GW5074, separate or combined; once a day for three weeks; n=8. Type of data set: in vivo. As to the method:
Six-week old immnunodeficient male mice (BALB/cAnN.Cg-Foxn1^nu/CrlNarl) with an average weight of 20 grams were xenografted with 1×10^7 ACHN cells to the right by […]. The mice were maintained in a specific pathogen-free (SPF) environment. The size of tumor was measured using a digital caliper twice a week and tumor volume was calculated by the equation of length*width*height*0.5. […] A total of four groups were included in the experiment: a control group which received only vehicle (DMSO), […], 25 mg/kg GW5074, […], respectively, with 8 mice in each group.

Data set [3] deals with ACHN cells. The experiment in a line: Annexin V-FITC / propidium iodide flow cytometry, cell necroptosis. As to conditions: 24 hours, 5 μM sorafenib, 10 μM GW5074, or both. The format is cell-based, Human. On the procedure:
(§1) Cells were cultured as described in example 1, washed with phosphate buffered saline (PBS), and stained with annexin V-FITC and propidium iodide (PI) for 15 minutes. The presence of fluorescent Annexin V as well as propidium iodide (PI) was detected by flow cytometry so as to determine whether the cell death is caused by apoptosis or necrosis. The expression of c-Raf and DAPK as well as the phosphorylation status of DAPK were examined by Western blot and immunoprecipitation using antibodies. Anti-DAPK antibodies or non-immune rabbit IgG (IP: immunoglobulin) were included as negative controls, and cell survival was measured by SRB assay, as shown in example 1.
In general terms: Flow cytometry measures light scatter and fluorescence of single cells or particles in a stream.

Data set [4] relates to Luc-ACHN-LL cells.
Experimental: Immunodeficient male mice was injected with 3×10^5 Luc-ACHN-LL cells in 50 μL PBS at the right renal capsule. In vivo luciferase activity was examined every day for up to three weeks so as to assure no leakage of cancer cells at the kidneys immediately after injection and to monitor metastasis of these cancer cells. Two to five minutes before utilizing the IVIS Xenogene system, 75 mg/kg D-Luciferin (Xenogen) in PBS was injected to the retro-orbital sinus of each mouse. Two weeks after injection of Luc-ACHN-LL cells, IVIS Xenogene system was used to monitor transfer of biological fluorescent images and to calculate the intensities of the photon signals (photons/s/cm^2/steradian). A total of five groups were included in the study: a control group which received only vehicle, and four test groups which respectively received 10 mg/kg sorafenib, 25 mg/kg GW5074, a combination therapy of 10 mg/kg sorafenib and 25 mg/kg GW5074 (the animals were fed with Sor 30 min post i.p. injection of GW), or 60 mg/kg sorafenib.
Data set [5] has as its system pDAPK^S308. The format is cell-based, Human. As to conditions: ACHN cells; PP2A inhibitor, various concentrations, provided 30 minutes prior to the combination drugs. As to the method:
as §1, with “1. In this experiment, ACHN cells were treated separately with DMSO (as a control group), 5 μM sorafenib, 10 μM GW5074, or combination therapy of 5 μM sorafenib and 10 μM GW5074 for 24 hours.” for “1.”

[6] abbreviates: 10 mg/kg sorafenib, 25 mg/kg GW5074, or both.

Each structure is given as a SMILES string. Read-outs that look alike come from different tables or passages of the source. Some results are limits rather than exact numbers.

Turning to `O=C1Nc2ccc(I)cc2/C1=C/c1cc(Br)c(O)c(Br)c1` [GW5074, 3-(3,5-Dibromo-4-hydroxy-benzylidene)-5-iodo-1,3-dihydro-indol-2-one], in data set [1], the “growth inhibition of cells” value is “no growth inhibition”. Moreover, the “xenografted tumor volume, inhibition effect” value in data set [2] was “nearly no inhibition effect”. In addition, in data set [3], the “average cell necroptosis rate” value is given as 1.35%. In addition, the “death within weeks following injection of cancer cells (survival)” value in data set [4] (setting [6]) is reported as at most 5 weeks.
On to `CNC(=O)c1cc(Oc2ccc(NC(=O)Nc3ccc(Cl)c(C(F)(F)F)c3)cc2)ccn1` [sorafenib], for which, in data set [1], the “growth inhibition of cells” value is “no growth inhibition”. The “xenografted tumor volume, inhibition effect” value in data set [2] is “nearly no inhibition effect”. Also, the “average cell necroptosis rate” value in data set [3] is 0.77%. Besides, the entries for the “death within weeks following injection of cancer cells (survival)” value in data set [4] (setting [6]) and in data set [4] (high-dose 60 mg/kg sorafenib) were at most 8 weeks and at most 10 weeks, respectively. Further, the body weight result in data set [4] (mouse, in vivo, 60 mg/kg) is reported as “loss of weight”.
Take `C=C1[C@@H](O)[C@@H]2O[C@]3(CC[C@H](/C=C/[C@@H](C)[C@@H]4CC(C)=C[C@@]5(O[C@H](C[C@@](C)(O)C(=O)O)CC[C@H]5O)O4)O3)CC[C@H]2O[C@@H]1[C@@H](O)C[C@H](C)[C@H]1O[C@@]2(CCCCO2)CC[C@H]1C` [Okadaic acid]: in data set [5], the “inhibition of dephosphorylation of pDAPK^S308 under combination therapy” value is “effective in inhibition of dephosphorylation of pDAPK^S308”.
